We go through six compounds from ChEMBL document CHEMBL4402508, “Natural product-drug conjugates for modulation of TRPV1-expressing tumors” (Bioorg Med Chem, 2019).

Calls of active or inactive are those of the source. No cut-off for these calls is given here.

Series [1] has as its target Transient receptor potential cation channel subfamily V member 1 (Homo sapiens) (UniProt Q8NER1). Nature of the series: Agonist activity at TRPV1 (unknown origin) expressed in HEK-293 cells assessed as induction of calcium influx at 5 uM incubated for 48 hrs by Fura2-AM dye based calcium imaging assay. The class given is cell-based.
Series [2] shares this target. In words: Binding affinity to TRPV1 in human U251 cells assessed as compound internalization by measuring compound localization in intracellular compartment at 20 uM incubated for 24 hrs by azide-488 fluorophore based in situ click reaction assay and confocal microscopy. The class given is cell-based.
For series [3] the target is unchanged. Nature of the series: Agonist activity at TRPV1 (unknown origin) expressed in HEK-293 cells assessed as induction of calcium influx at 50 uM incubated for 48 hrs by Fura2-AM dye based calcium imaging assay relative to capsaicin. The class given is cell-based.
The next series has as its system PC-3. In words: Cytotoxicity in […] expressing human PC3 cells assessed as reduction in cell viability at 200 uM incubated for 24 to 72 hrs by Cell-titer blue assay. As to conditions: TDE = time-dependent effect. In kind it is functional, cell-based.
Series [4] is described as follows: Drug degradation in PBS assessed as hydrolysis of western conjugate region at 0.2 mM at 37 degC incubated up to 6 hrs by LC-MS analysis. In kind it is physicochemical. The conditions noted are these: buffer, 200 µM; for Drug degradation: TDE = time-dependent effect.
For series [5], the target named is Transient receptor potential cation channel subfamily V member 1 (Homo sapiens) (UniProt Q8NER1). Nature of the series: Agonist activity at TRPV1 (unknown origin) expressed in HEK-293 cells assessed as induction of calcium influx at 50 uM incubated for 48 hrs by Fura2-AM dye based calcium imaging assay. In kind it is cell-based.
Transient receptor potential cation channel subfamily V member 1 (Homo sapiens), sequence (Q8NER1 whole entry): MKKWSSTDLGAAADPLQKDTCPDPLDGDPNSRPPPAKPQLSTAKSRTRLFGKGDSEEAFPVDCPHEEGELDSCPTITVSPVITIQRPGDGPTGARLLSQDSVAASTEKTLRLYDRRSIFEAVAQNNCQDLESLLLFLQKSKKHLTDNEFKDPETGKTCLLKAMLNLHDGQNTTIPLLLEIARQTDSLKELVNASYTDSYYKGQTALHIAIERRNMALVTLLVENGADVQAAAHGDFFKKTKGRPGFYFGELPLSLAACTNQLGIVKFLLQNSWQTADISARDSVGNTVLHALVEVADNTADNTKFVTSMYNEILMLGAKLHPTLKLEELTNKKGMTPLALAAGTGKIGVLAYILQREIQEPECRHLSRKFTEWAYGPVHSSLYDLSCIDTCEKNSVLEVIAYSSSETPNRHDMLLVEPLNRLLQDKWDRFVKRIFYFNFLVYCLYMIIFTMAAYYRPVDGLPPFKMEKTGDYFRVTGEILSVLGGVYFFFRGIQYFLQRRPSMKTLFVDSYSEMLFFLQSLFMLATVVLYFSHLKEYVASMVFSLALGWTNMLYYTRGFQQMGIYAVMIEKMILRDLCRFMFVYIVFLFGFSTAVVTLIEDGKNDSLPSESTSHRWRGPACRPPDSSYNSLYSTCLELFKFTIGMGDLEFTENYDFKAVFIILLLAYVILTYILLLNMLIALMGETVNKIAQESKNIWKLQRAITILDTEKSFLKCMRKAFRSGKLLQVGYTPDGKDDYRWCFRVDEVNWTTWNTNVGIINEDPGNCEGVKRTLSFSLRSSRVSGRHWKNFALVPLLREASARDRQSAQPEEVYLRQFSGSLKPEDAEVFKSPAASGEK

Consider `C#CCCCCCCCCC(=O)NCc1ccc(O)c(OC)c1`, for which the result in series [1] and in series [2] was Active.
With `COc1cc(CNC(=O)CCCCNC(=O)c2ncn3c(=O)n(C)nnc23)ccc1O`, the results for the Activity (in series [3]; with PC-3) were 40% and “Tde”, respectively. For the same compound, in series [4], the Drug degradation result is reported as “Tde”. The outcome in series [5] was Active.
With `COc1cc(CNC(=O)CCCCCCNC(=O)c2ncn3c(=O)n(C)nnc23)ccc1O`, the Activity in series [3] was 40%; in the series with PC-3 it was “Tde”. In addition, the Drug degradation result in series [4] was “Tde”. In addition, in series [5], the outcome was Active.
Turning to `Cn1nnc2c(C(N)=O)ncn2c1=O`, in the series on PC-3, the Activity entry is “Tde”.
As to `COc1cc(CNC(=O)CCCC/C=C/C(C)C)ccc1O` [CAPSAICIN], the Stability result in series [4] was “Stable”.
For `COc1cc(CNC(=O)CNC(=O)c2ncn3c(=O)n(C)nnc23)ccc1O`, the Activity in series [3] is 40%; in the series on PC-3 it was “Tde”. For the same compound, the Drug degradation entry in series [4] was “Tde”. The result in series [5] was Active.
